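Compound exposure: 48 hours, 5 concentrations, 96-well plates. At the TGI there is no net growth.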
Legend:
Assay in all cases: NCI anticancer screen, dose series, 48 h
[1] = tested on: SK-MEL-28 melanoma
[2] = tested on: NCI-H522 lung
[3] = tested on: HOP-92 NSCLC
[4] = tested on: SR leukemia
[5] = tested on: COLO 205 colon
[6] = tested on: NCI/ADR-RES ovarian
[7] = tested on: OVCAR-3 ovarian
[8] = tested on: SK-MEL-5 melanoma
[9] = tested on: SNB-19 CNS
[10] = tested on: MCF7 breast
[11] = tested on: OVCAR-8 ovarian
[12] = tested on: SK-OV-3 ovarian
[13] = tested on: RPMI-8226 leukemia
[14] = tested on: T-47D breast

Structure (SMILES)	TGI [1] [µM]	TGI [2] [µM]	TGI [3] [µM]	TGI [4] [µM]	TGI [5] [µM]	TGI [6] [µM]	TGI [7] [µM]	TGI [8] [µM]	TGI [9] [µM]	TGI [10] [µM]	TGI [11] [µM]	TGI [12] [µM]	TGI [13] [µM]	TGI [14] [µM]
CCOc1cc(NC(C)=O)ccc1C(=O)NN1C(=O)/C(=C/c2cc(OC)c(OC)c(OC)c2)N=C1c1ccccc1	> 100	> 100	> 100	> 100	> 100	> 100	> 100	> 100	> 100	> 100	> 100	> 100		
CC(C)C1OC(=O)/C=C/C=C/C=C/C=C/C=C/CC(O)CC(O)CC(O)CC(O)CC(O)CC(O)CC(O)CC(O)/C=C/C1C (centres undefined)	> 100		> 100	> 100	> 100	> 100	> 100	> 100	> 100	> 100	> 100		> 100	
CC(=O)Nc1ccc2c3c(cc(O)c2c1)N(C(=O)CCCCC(=O)Nc1ccc2c4c(cc(O)c2c1)N(C(=O)OC(C)(C)C)CC4CCl)CC3CCl (centres undefined)	23.2	4.1	32.8		4.17	> 79.7	5.41	3.18	> 29.5	5.16	> 38.7	> 85.3	> 25.8	
CCCCOC(=O)C(O)Cc1ccoc1 (centres undefined)	> 100	> 100			> 100	> 100	> 100	> 100	> 100	> 100	> 100	> 100	> 100	> 100
Cc1c(NC(=S)Nc2ccc(Cl)cc2)c(=O)n(-c2ccccc2)n1C	> 100	> 100	> 100	> 100	> 100	> 100	> 100	> 100	> 100	> 100		> 100	> 100	
COc1cccc(-c2cc(=O)c3c(C)ccnc3[nH]2)c1		0.226		0.0396	0.0854			3.71	> 100	> 100	> 100	> 100	11.8	> 100
CN1CN(c2ccccc2)C2(CCN(CCc3csc4ccccc34)CC2)C1=O	29.7	34.4		80.6	35.7	28.1	26.6	33.3	93.4	33.9	51.6	76.9	37.4	54.2
CC1(C)N=C(N)N=C(N)N1c1cccc(OCCOc2ccc([N+](=O)[O-])cc2)c1	> 100	> 100	> 100	> 100	> 100		> 100	> 100	> 100	> 100	> 100	> 100	> 100	
CC12Cc3cc4c(cc3C1(c1ccc([N+](=O)[O-])cc1)OCCO2)OCO4 (centres undefined)	> 100	> 100		> 100	> 100	> 100	> 100	> 100	73.2	> 100	64	47.6	> 100	> 100
CC1(C)CC(=O)c2c(nc3ccc4ccccc4c3c2-c2ccc(NC(=O)CCC(=O)Nc3ccc(-c4c5c(nc6ccc7ccccc7c46)CC(C)(C)CC5=O)cc3)cc2)C1	> 100	> 100		> 100	> 100	> 100	> 100	> 100	> 100	> 100	> 100	> 100	> 100	> 100
CC1C[C@]2(C)C(=O)N(c3ccccc3)C(=N)[C@@H]2N(C)c2ccccc21 (some centres undefined)	> 100	> 100		> 100	> 100	> 100	> 100	> 100	> 100	> 100	> 100		> 100	> 100
CNC(=O)c1[nH]cnc1/N=N/N(C)N	> 100	> 100			> 100	> 100	> 100	> 100			> 100	> 100	> 100	> 100
c1cc2c(c(-c3c4ccccc4nc4ccccc34)c1)CC1(CC2)OCCO1	> 100	> 100	> 100		> 100	> 100	> 100	> 100	> 100	> 100	> 100	> 100	> 100	> 100
CC1(C)Oc2ccc3c(=O)cc(-c4ccc(F)cc4)oc3c2C1C(=O)O (centres undefined)		> 100		> 100	> 100	> 100	> 100	> 100		> 100	> 100	> 100		> 100
O=c1oc2ccccc2n1CCN1CCCCC1	> 100			> 100	> 100	> 100	> 100	> 100	> 100	> 100	> 100	> 100	> 100	
Cc1cn(Cc2ccccc2CCl)c(=O)[nH]c1=O	45.5	23.9	> 100		45.7	36.2	12.6	20.7	25.9	19	29.2	> 100		44.8
CN(C)Cc1cc(N=Nc2ccccc2)cc(CN(C)C)c1O	> 100	> 100	> 100	> 100	> 100	> 100	> 100	> 100	> 100		> 100	> 100	> 100	> 100
Cc1nnc2n1-c1ccccc1C(=S)N1CSCC21 (centres undefined)	> 100	> 100		> 100	> 100	> 100	> 100	> 100	> 100	> 100	> 100	> 100	> 100	> 100

— PubChem BioAssay (NCI)
